Results from patent US10245261B2, “Substituted indol-5-ol derivatives and their therapeutic applications” (NantBioScience, Inc., priority 2013, dated 2019).

How the values were obtained:
Assay in all cases: KinaseProfiler kinase assay
Assay type in all cases: biochemical
EphB4(h) = EphB4(h) (Homo sapiens, UniProt P54760)
Outline: (§1)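 Using a filter-binding 33P format, reactions initiated by MgATP addition proceeded 40 min at room temperature before a 3% phosphoric acid stop. Filtermats were washed three times in 50 mM phosphoric acid and once in methanol, dried and counted.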

p70S6K(h) = p70S6K(h) (Homo sapiens, UniProt P23443)
Outline: as §1

Plk1(h) = Plk1(h) (Homo sapiens, UniProt P53350)
Outline: as §1

MKK4(m) = MKK4(m) (Mus musculus, UniProt P47809)
Outline: as §1

Met(Y1248D)(h) = Met(Y1248D)(h) (Homo sapiens, UniProt P08581, Y1230D)
Outline: as §1

IRR(h) = IRR(h) (Homo sapiens, UniProt P14616)
Outline: as §1

PrKX(h) = PrKX(h) (Homo sapiens, UniProt P51817)
Outline: as §1

[1] = biological target: PI3 Kinase (p110α(E545K)/p85α)(h) (Homo sapiens, UniProt P42336, E545K)
Outline: as §1

Mnk2(h) = Mnk2(h) (Homo sapiens, UniProt Q9HBH9)
Outline: as §1

SGK2(h) = SGK2(h) (Homo sapiens, UniProt Q9HBY8)
Outline: as §1

FGFR1(V561M)(h) = FGFR1(V561M)(h) (Homo sapiens, UniProt P11362, V561M)
Outline: as §1

TrkA(h) = TrkA(h) (Homo sapiens, UniProt P04629)
Outline: as §1

IKKα(h) = IKKα(h) (Homo sapiens, UniProt O15111)
Outline: as §1

MLCK(h) = MLCK(h) (Homo sapiens, UniProt Q9H1R3)
Outline: as §1

MAPK2(m) = MAPK2(m) (Mus musculus, UniProt P63085)
Outline: as §1

DCAMKL2(h) = DCAMKL2(h) (Homo sapiens, UniProt Q8N568)
Outline: as §1

VRK2(h) = VRK2(h) (Homo sapiens, UniProt Q86Y07)
Outline: as §1

Hck(h) activated = Hck(h) activated (Homo sapiens, UniProt P08631)
Outline: as §1

Src(T341M)(h) = Src(T341M)(h) (Homo sapiens, UniProt P12931, T341M)
Outline: as §1

HIPK3(h) = HIPK3(h) (Homo sapiens, UniProt Q9H422)
Outline: as §1

Lck(h) activated = Lck(h) activated (Homo sapiens, UniProt P06239)
Outline: as §1

Tie2(R849W)(h) = Tie2(R849W)(h) (Homo sapiens, UniProt Q02763, R849W)
Outline: as §1

CaMKIIγ(h) = CaMKIIγ(h) (Homo sapiens, UniProt Q13555)
Outline: as §1

EphA3(h) = EphA3(h) (Homo sapiens, UniProt P29320)
Outline: as §1

CDK6/cyclinD3(h) = CDK6/cyclinD3(h) (Homo sapiens, UniProt Q00534)
Outline: as §1

CK1γ3(h) = CK1γ3(h) (Homo sapiens, UniProt Q9Y6M4)
Outline: as §1

ROCK-II(r) = ROCK-II(r) (Rattus norvegicus, UniProt Q62868)
Outline: as §1

NEK2(h) = NEK2(h) (Homo sapiens, UniProt P51955)
Outline: as §1

NLK(h) = NLK(h) (Homo sapiens, UniProt Q9UBE8)
Outline: as §1

Rsk1(r) = Rsk1(r) (Rattus norvegicus, UniProt Q63531)
Outline: as §1

RIPK2(h) = RIPK2(h) (Homo sapiens, UniProt O43353)
Outline: as §1

Chain of NLK(h) (Q9UBE8 whole entry): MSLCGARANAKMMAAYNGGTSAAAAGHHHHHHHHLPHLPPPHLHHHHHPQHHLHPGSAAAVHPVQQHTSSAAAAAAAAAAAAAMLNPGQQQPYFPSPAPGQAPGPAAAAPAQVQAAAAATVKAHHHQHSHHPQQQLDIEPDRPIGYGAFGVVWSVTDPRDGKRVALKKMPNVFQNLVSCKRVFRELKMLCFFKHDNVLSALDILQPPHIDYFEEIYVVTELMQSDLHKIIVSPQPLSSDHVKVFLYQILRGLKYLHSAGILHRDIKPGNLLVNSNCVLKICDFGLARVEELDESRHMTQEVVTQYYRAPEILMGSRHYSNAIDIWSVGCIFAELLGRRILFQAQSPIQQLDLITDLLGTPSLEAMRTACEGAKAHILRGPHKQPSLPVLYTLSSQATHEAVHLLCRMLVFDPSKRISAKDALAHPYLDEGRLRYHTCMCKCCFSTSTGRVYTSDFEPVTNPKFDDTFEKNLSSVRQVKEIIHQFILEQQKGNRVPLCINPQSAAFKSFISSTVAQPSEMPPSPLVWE
Chain of Tie2(R849W)(h) (Q02763 23-1124 R849W): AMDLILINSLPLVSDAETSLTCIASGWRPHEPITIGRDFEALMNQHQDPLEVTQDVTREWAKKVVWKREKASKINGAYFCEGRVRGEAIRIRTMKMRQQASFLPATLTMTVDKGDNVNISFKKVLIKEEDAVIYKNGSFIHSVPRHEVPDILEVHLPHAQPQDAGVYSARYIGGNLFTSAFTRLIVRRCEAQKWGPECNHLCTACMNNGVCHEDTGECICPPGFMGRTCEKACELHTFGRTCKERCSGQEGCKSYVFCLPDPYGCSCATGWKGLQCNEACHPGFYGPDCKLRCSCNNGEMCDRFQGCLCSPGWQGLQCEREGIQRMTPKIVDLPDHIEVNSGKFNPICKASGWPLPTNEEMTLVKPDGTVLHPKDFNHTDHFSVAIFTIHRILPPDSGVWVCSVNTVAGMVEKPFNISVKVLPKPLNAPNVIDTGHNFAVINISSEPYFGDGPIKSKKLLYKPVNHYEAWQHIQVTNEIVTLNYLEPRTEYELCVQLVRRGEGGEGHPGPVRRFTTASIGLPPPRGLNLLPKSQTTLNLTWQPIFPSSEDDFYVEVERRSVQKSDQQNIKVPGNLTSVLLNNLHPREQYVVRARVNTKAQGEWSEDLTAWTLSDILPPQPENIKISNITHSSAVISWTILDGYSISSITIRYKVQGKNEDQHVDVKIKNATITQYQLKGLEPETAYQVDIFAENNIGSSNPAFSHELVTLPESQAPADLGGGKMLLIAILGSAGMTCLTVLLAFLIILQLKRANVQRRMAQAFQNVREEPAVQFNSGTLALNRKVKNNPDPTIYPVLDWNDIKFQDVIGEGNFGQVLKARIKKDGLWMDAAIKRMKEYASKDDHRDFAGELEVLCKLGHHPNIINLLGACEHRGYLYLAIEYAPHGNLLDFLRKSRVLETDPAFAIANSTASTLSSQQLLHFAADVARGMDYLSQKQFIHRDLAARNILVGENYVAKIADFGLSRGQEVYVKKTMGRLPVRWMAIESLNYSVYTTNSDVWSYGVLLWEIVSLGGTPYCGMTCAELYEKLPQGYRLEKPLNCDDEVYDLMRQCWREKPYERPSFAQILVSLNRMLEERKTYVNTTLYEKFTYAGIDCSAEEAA
Chain of HIPK3(h) (Q9H422 whole entry): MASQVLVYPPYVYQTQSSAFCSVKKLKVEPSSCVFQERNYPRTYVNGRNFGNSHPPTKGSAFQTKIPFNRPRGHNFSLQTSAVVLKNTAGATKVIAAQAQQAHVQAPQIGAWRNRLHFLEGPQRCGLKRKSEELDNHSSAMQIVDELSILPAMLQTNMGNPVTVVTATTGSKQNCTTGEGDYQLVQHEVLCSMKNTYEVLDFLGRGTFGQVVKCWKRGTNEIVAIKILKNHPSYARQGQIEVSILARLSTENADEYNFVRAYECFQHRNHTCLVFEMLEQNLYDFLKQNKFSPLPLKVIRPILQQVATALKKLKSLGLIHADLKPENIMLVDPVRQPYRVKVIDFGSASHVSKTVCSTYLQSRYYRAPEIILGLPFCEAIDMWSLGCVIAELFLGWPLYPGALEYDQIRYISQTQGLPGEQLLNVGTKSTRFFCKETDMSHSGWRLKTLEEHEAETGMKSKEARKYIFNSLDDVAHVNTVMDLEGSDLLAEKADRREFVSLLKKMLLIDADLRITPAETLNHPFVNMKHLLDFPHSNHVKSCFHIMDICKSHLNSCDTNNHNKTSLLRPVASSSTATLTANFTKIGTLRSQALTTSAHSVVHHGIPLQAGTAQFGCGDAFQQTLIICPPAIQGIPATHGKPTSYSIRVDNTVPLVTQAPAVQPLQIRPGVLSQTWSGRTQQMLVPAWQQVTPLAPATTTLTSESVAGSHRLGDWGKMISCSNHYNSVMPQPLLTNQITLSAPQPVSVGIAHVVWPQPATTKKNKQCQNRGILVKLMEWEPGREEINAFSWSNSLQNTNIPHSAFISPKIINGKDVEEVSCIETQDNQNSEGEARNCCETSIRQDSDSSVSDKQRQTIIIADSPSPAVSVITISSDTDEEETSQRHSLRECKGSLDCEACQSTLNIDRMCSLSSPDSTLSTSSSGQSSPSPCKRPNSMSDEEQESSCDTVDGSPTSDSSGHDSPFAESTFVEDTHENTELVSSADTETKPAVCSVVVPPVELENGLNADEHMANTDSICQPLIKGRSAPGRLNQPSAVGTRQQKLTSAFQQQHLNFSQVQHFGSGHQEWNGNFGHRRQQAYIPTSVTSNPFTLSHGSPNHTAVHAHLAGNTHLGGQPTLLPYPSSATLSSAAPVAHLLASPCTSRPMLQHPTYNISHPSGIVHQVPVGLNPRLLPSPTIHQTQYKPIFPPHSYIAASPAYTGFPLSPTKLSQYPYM
Chain of IRR(h) (P14616 27-1297): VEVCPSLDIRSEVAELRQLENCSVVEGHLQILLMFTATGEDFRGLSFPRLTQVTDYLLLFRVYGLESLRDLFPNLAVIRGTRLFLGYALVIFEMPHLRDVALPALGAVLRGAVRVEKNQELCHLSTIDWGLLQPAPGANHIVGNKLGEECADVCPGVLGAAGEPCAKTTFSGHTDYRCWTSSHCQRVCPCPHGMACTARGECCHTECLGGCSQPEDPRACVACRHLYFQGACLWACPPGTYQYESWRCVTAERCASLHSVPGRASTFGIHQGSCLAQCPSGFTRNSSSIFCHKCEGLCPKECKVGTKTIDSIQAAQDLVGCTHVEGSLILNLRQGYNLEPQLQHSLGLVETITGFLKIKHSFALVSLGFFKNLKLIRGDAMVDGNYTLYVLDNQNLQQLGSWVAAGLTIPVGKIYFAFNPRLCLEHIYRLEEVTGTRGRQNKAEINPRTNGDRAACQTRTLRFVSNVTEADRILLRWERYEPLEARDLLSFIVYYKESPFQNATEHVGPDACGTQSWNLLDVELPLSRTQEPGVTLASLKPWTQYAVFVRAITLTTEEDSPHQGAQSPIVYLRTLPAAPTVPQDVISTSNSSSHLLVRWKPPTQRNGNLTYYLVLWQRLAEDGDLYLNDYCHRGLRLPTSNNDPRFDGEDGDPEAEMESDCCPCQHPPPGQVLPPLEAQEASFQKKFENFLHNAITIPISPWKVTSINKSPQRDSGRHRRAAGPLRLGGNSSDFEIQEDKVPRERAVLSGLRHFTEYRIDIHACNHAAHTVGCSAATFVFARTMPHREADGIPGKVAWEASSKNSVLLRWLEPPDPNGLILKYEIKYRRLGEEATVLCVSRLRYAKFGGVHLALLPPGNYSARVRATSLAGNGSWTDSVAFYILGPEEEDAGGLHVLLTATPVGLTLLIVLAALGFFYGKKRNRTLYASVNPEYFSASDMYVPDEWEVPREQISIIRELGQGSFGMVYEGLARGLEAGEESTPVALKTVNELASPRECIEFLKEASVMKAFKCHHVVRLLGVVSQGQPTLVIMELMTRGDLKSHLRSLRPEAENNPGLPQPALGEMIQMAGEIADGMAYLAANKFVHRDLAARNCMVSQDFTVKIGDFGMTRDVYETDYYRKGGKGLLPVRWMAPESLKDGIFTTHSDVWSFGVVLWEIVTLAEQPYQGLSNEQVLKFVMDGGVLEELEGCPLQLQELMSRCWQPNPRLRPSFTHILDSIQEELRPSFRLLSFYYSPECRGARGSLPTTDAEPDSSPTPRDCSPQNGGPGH
Chain of EphA3(h) (P29320 21-983): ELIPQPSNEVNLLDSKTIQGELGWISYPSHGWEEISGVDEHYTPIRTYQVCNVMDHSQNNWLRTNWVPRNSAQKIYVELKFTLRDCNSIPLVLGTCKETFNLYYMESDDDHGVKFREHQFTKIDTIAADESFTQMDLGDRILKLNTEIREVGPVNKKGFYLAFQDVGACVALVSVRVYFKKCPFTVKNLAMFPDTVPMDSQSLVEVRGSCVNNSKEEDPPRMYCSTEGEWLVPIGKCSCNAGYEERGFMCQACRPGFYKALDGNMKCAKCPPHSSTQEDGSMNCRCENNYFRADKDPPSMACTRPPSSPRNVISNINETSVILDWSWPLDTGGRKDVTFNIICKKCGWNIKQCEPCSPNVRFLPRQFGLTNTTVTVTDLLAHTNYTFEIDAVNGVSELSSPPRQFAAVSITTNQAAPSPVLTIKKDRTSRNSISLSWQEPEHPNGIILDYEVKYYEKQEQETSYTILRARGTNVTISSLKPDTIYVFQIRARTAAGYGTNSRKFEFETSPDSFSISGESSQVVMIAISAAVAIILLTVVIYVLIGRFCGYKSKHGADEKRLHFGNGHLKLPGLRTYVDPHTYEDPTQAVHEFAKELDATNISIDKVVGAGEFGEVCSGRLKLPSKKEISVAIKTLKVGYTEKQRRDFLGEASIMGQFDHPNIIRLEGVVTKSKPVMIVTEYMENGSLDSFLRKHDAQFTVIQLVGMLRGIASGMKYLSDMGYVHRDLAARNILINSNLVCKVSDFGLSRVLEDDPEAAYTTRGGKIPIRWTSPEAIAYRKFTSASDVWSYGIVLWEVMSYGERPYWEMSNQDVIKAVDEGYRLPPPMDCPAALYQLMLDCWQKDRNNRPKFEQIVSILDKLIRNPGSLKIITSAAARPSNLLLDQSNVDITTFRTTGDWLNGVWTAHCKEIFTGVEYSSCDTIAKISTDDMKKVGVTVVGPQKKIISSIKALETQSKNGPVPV

SMILES	inhibition at 0.1 µM (EphB4(h))	inhibition at 0.1 µM (p70S6K(h))	inhibition at 0.1 µM (Plk1(h))	inhibition at 0.1 µM (MKK4(m))	inhibition at 0.1 µM (Met(Y1248D)(h))	inhibition at 0.1 µM (IRR(h))	inhibition at 0.1 µM (PrKX(h))	inhibition at 0.1 µM [1]	inhibition at 0.1 µM (Mnk2(h))	inhibition at 0.1 µM (SGK2(h))	inhibition at 0.1 µM (FGFR1(V561M)(h))	inhibition at 0.1 µM (TrkA(h))	inhibition at 0.1 µM (IKKα(h))	inhibition at 0.1 µM (MLCK(h))	inhibition at 0.1 µM (MAPK2(m))	inhibition at 0.1 µM (DCAMKL2(h))	inhibition at 0.1 µM (VRK2(h))	inhibition at 0.1 µM (Hck(h) activated)	inhibition at 0.1 µM (Src(T341M)(h))	inhibition at 0.1 µM (HIPK3(h))	further results
Cc1cc2c(F)c(Oc3nc(Nc4cc(C5CC5)[nH]n4)cc(N4CCN(C)CC4)n3)ccc2[nH]1 [Compound 10]	85%	-10%	-9%	-2%	80%	91%	13%	-2%	1%	-41%	101%	102%	-12%	0%	-16%	16%	34%	90%	102%	-1%	inhibition at 0.1 µM (Lck(h) activated): 97%; inhibition at 0.1 µM (Tie2(R849W)(h)): 88%; inhibition at 0.1 µM (CaMKIIγ(h)): -8%; inhibition at 0.1 µM (EphA3(h)): 47%; inhibition at 0.1 µM (CDK6/cyclinD3(h)): -5%; inhibition at 0.1 µM (CK1γ3(h)): -12%; inhibition at 0.1 µM (ROCK-II(r)): 13%; inhibition at 0.1 µM (NEK2(h)): 6%; inhibition at 0.1 µM (NLK(h)): -12%; inhibition at 0.1 µM (Rsk1(r)): 16%; inhibition at 0.1 µM (RIPK2(h)): 1%
Cc1cc2c(F)c(Oc3nc(Nc4cc(C5CC5)[nH]n4)cc(N4CCNCC4)n3)ccc2[nH]1 [Compound 11, N-(5-cyclopropyl-1H-pyrazol-3-yl)-2-((4-fluoro-2-methyl-1H-indol-5-yl)oxy)-6-(piperazin-1-yl)pyrimidin-4-amine]	85%	2%	-10%	-28%	76%	95%	35%	2%	-2%	-12%	101%	100%	-3%	0%	10%	15%	4%	84%	101%	-3%	inhibition at 0.1 µM (Lck(h) activated): 100%; inhibition at 0.1 µM (Tie2(R849W)(h)): 93%; inhibition at 0.1 µM (CaMKIIγ(h)): 22%; inhibition at 0.1 µM (EphA3(h)): 56%; inhibition at 0.1 µM (CDK6/cyclinD3(h)): 11%; inhibition at 0.1 µM (CK1γ3(h)): -9%; inhibition at 0.1 µM (ROCK-II(r)): 16%; inhibition at 0.1 µM (NEK2(h)): -7%; inhibition at 0.1 µM (NLK(h)): -8%; inhibition at 0.1 µM (Rsk1(r)): 14%; inhibition at 0.1 µM (RIPK2(h)): 13%
